From patent publication US20220009920A1 (GB005, Inc., priority 2020, published 2022)

Tests used:
Experiment in all cases: Large panel kinase profiling
Format in all cases: biochemical
Settings in all cases: 1 μM test article, 1 mM ATP
LCK = LCK (Homo sapiens, UniProt P06239)
Outline: (§1)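 Activity is measured in real time from the CSox sensor's fluorescence at 485 nm after 360 nm excitation, sampled every minute. Assays run at 30° C. with 1 mM ATP and a single 1 μM compound dose.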

CDK1/B1 = target: T1, CDK1/B1 (Homo sapiens, UniProt P06493)
T1 construct: AssayQuant Technologies, Inc. (ran the panel)
Outline: as §1

RIPK2 = RIPK2 (Homo sapiens, UniProt O43353)
Outline: as §1

STK33 = target: T2, STK33 (Homo sapiens, UniProt Q9BYT3)
T2 construct: AssayQuant Technologies, Inc. (contract assay)
Outline: as §1

ERBB4/HER4 = ERBB4/HER4 (Homo sapiens, UniProt Q15303)
Outline: as §1

NEK2 = target: T3, NEK2 (Homo sapiens, UniProt P51955)
T3 construct: AssayQuant Technologies, Inc. (assay service)
T3 sequence (P51955 1-445): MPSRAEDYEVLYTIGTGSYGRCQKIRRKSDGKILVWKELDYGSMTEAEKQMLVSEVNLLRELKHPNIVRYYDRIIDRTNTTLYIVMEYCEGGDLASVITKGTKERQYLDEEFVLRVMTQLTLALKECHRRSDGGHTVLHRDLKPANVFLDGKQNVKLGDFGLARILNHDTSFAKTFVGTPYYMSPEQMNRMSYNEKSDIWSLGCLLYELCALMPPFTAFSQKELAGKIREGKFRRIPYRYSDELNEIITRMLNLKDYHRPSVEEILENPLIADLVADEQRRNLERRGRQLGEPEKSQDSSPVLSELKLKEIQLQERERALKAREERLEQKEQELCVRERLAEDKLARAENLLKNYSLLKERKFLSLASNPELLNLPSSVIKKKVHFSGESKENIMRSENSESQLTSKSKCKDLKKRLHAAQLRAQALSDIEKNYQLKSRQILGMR
Outline: as §1

PRKCQ/PKCQ = PRKCQ/PKCQ (Homo sapiens, UniProt Q04759)
Outline: as §1

BMX = target: T4, BMX (Homo sapiens, UniProt P51813)
T4 sequence (P51813 1-675): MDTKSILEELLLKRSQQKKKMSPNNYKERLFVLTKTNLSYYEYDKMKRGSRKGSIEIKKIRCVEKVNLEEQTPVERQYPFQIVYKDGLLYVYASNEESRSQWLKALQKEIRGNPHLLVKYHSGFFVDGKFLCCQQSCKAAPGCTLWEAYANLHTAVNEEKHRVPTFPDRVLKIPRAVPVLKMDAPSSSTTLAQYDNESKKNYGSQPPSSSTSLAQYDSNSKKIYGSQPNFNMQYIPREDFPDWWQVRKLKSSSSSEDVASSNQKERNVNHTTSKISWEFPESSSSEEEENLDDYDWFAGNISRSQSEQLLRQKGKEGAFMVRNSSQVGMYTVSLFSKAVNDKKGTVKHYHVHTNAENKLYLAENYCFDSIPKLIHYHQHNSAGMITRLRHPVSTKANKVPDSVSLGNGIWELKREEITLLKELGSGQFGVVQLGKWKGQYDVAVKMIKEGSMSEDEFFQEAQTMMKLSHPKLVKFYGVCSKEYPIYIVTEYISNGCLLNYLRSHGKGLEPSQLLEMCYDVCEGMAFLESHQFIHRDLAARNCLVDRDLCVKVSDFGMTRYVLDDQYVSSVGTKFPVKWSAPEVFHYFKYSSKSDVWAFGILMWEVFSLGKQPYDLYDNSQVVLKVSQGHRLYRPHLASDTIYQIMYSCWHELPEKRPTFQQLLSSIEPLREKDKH
Outline: as §1

HIPK4 = target: T5, HIPK4 (Homo sapiens, UniProt Q8NE63)
T5 construct: AssayQuant Technologies, Inc. (service provider)
T5 sequence (Q8NE63 1-616): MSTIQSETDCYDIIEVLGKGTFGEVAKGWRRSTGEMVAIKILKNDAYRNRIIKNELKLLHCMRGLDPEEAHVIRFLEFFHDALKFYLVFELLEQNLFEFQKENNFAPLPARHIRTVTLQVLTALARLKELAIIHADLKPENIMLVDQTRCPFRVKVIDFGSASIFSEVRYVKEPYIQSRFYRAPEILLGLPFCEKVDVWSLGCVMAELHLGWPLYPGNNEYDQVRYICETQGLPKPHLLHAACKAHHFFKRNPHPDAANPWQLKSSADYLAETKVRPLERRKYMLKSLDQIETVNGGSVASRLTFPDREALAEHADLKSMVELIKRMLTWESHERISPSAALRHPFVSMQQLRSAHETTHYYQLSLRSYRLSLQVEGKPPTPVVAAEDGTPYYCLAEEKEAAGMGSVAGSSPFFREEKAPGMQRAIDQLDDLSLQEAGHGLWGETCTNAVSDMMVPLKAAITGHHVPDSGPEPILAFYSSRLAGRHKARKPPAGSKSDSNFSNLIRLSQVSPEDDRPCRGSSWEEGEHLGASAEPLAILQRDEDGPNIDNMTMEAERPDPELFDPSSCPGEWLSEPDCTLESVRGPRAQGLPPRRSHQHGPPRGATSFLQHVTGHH
Outline: as §1

T1 sequence (P06493 whole entry, species assumed): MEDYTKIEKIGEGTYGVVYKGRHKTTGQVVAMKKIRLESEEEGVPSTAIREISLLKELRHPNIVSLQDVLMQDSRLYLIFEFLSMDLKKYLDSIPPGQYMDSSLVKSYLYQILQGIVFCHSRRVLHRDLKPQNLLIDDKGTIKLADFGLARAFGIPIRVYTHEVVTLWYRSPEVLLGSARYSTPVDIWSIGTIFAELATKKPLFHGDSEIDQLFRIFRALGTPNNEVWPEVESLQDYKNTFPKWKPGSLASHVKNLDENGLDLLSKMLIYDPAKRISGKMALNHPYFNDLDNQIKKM
T1 sequence (P14635 whole entry partner, species assumed): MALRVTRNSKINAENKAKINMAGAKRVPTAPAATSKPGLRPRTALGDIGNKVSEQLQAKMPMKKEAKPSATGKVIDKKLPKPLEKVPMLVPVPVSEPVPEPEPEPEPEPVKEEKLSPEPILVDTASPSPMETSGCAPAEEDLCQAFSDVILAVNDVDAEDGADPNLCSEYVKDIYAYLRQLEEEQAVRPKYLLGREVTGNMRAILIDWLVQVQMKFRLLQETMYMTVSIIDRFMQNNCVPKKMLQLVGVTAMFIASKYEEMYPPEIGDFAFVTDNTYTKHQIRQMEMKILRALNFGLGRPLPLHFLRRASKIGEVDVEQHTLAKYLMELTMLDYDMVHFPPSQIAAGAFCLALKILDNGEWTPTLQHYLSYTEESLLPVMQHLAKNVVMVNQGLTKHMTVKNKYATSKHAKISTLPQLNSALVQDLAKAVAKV
LCK, sequence (P06239 whole entry, species assumed): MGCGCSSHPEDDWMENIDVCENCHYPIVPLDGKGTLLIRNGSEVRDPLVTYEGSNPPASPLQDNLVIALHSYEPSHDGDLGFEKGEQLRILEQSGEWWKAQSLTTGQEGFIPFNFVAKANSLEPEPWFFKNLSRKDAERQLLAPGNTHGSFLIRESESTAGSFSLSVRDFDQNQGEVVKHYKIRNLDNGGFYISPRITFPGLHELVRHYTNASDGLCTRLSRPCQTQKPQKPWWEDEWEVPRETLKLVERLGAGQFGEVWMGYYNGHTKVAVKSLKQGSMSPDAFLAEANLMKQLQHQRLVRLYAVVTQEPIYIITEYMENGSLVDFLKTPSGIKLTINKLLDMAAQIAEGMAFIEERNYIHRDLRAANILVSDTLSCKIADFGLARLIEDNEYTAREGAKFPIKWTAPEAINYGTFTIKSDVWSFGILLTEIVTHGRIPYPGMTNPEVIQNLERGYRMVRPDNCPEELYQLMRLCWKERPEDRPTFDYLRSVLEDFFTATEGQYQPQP
PRKCQ/PKCQ, sequence (Q04759 whole entry): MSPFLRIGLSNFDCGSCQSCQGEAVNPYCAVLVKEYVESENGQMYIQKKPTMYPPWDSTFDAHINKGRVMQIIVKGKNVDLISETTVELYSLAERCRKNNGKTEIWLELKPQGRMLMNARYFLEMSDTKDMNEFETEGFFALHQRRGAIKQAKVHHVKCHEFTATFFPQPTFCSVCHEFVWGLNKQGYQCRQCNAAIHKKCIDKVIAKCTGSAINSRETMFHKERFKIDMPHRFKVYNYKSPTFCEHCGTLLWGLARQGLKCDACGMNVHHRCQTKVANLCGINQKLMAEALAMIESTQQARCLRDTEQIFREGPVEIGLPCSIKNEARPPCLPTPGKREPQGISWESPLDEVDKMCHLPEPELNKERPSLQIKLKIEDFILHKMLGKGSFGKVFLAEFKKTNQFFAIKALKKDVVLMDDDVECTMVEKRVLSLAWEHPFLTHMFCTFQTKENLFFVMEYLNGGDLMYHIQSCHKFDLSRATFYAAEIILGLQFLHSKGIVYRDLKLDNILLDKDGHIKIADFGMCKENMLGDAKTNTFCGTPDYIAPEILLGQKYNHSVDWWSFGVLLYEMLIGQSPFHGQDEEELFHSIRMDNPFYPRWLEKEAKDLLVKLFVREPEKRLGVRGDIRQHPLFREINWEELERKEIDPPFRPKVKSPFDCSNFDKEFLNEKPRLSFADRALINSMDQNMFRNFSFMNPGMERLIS
T2 sequence (Q9BYT3 whole entry, species assumed): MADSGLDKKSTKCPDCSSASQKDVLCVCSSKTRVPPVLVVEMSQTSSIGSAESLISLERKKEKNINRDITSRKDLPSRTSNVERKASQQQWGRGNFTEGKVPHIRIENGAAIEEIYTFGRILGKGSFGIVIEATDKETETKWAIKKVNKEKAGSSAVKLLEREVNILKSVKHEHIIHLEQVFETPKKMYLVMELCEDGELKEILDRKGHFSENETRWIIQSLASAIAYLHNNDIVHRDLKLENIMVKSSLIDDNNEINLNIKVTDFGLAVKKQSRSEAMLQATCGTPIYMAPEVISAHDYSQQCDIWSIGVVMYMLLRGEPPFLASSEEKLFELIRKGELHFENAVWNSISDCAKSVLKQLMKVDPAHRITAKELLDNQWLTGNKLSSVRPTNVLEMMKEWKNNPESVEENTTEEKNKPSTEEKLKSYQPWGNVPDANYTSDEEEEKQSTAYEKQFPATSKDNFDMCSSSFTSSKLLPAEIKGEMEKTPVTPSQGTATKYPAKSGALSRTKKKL
RIPK2, sequence (O43353 whole entry, species assumed): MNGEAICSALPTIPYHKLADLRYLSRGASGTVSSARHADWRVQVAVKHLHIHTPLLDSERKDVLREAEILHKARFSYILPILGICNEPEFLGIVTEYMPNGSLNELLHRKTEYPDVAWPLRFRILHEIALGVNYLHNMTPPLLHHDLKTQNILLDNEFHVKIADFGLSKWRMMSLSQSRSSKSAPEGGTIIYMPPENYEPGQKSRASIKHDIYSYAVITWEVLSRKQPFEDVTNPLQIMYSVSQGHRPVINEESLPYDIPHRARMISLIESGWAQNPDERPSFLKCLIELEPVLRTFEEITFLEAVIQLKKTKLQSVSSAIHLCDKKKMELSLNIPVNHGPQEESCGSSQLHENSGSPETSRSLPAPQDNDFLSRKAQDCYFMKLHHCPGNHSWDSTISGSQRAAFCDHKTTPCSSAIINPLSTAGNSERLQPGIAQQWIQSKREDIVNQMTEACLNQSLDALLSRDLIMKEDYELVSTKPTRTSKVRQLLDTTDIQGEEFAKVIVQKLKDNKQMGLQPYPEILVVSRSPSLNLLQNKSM
ERBB4/HER4, sequence (Q15303 26-1308): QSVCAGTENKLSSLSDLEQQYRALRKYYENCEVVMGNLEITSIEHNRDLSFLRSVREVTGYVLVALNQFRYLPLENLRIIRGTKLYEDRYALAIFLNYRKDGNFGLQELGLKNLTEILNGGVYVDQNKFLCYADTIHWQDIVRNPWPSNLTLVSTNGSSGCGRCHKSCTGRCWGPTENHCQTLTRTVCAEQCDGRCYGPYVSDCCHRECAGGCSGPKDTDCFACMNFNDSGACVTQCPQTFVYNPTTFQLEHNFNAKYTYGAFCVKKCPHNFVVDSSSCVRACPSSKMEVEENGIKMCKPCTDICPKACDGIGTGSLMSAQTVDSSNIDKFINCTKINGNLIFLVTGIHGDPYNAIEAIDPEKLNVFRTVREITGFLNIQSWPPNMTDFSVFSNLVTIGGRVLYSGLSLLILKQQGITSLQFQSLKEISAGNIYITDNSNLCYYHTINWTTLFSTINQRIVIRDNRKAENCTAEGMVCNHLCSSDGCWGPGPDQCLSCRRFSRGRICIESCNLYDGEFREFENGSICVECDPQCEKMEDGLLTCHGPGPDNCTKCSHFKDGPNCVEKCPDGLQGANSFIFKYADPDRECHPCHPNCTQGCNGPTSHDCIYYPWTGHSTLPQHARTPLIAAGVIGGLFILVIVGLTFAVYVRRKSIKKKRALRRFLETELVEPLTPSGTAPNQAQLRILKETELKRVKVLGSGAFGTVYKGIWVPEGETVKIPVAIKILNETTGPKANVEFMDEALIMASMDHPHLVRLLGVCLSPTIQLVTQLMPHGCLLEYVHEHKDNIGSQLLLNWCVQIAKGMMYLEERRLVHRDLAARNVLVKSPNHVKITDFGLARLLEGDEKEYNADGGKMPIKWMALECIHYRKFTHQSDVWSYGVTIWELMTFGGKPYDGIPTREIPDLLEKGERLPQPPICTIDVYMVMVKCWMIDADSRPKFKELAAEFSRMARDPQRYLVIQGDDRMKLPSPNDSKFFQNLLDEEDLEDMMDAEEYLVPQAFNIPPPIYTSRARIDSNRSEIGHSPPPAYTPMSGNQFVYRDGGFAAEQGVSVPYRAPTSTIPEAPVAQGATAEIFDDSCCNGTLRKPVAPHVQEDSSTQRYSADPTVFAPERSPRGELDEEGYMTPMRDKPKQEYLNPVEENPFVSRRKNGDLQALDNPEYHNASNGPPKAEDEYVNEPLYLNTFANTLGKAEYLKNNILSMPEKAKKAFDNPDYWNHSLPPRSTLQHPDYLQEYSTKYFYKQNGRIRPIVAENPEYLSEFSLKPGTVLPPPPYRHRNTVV

SMILES: C=CC(=O)N1CCCC(c2c(F)cc(C(N)=O)c3[nH]c4c(c23)CCCCC4)C1 (single isomer, unassigned) [Compound 5-6]
- inhibition at 1 µM (LCK): 0.2%
- inhibition at 1 µM (CDK1/B1): -13.7%
- inhibition at 1 µM (RIPK2): 7.1%
- inhibition at 1 µM (STK33): -7.9%
- inhibition at 1 µM (ERBB4/HER4): -19.7%
- inhibition at 1 µM (NEK2): -26.5%
- inhibition at 1 µM (PRKCQ/PKCQ): -3.7%
- inhibition at 1 µM (BMX): 42%
- inhibition at 1 µM (HIPK4): -1.6%

SMILES: C=CC(=O)N1CCC[C@@H](c2c(F)cc(C(N)=O)c3[nH]c4c(c23)CC2(CC4)CC2)C1 [Compound 6-2, (S)-5-(1-acryloylpiperidin-3-yl)-6-fluoro-1,2,4,9-tetrahydrospiro[carbazole-3,1′-cyclopropane]-8-carboxamide]
- inhibition at 1 µM (LCK): 15.9%
- inhibition at 1 µM (CDK1/B1): -9.5%
- inhibition at 1 µM (RIPK2): -31.3%
- inhibition at 1 µM (STK33): -27.1%
- inhibition at 1 µM (ERBB4/HER4): 2.4%
- inhibition at 1 µM (NEK2): -1.4%
- inhibition at 1 µM (PRKCQ/PKCQ): 0.7%
- inhibition at 1 µM (BMX): 86%
- inhibition at 1 µM (HIPK4): -1.9%

SMILES: C=CC(=O)N1CCC[C@@H](c2c(F)cc(C(N)=O)c3[nH]c4c(c23)CCC4)C1 [Compound 10-2, (S)-8-(1-acryloylpiperidin-3-yl)-7-fluoro-1,2,3,4-tetrahydrocyclo-penta[b]indole-5-carboxamide]
- inhibition at 1 µM (LCK): 18.3%
- inhibition at 1 µM (CDK1/B1): -3.8%
- inhibition at 1 µM (RIPK2): -45.4%
- inhibition at 1 µM (STK33): 20.5%
- inhibition at 1 µM (ERBB4/HER4): 17.1%
- inhibition at 1 µM (NEK2): 10.6%
- inhibition at 1 µM (PRKCQ/PKCQ): -72.5%
- inhibition at 1 µM (BMX): 65.2%
- inhibition at 1 µM (HIPK4): 24.3%
